Data published in US20210024499A1, “OXIDIZED BIS(3-INDOLYL)METHANES AND USES THEREOF” (Sanford Burnam Prebys Medical Discovery Institute, priority 2018, published 2021).

Tests used:
Bcl-2−/−HeLa cells = test: Mitochondrial membrane potential (JC1), Bcl-2 knockout HeLa; assay type: cell-based; settings: 0.5 μM, 6 h
Method: (§1) Loss of mitochondrial membrane potential (Avm) represents one of the hallmarks of apoptosis. A JC-1 probe was employed to measure mitochondrial depolarization in cancer cells. MDA-MB-231 breast cancer cells were treated with different concentration of test compounds for 6 hours. JC-1 staining solution (5 μg/ml) was added at 37° C. for 20 min. After washing with PBS twice, mitochondrial membrane potentials were monitored by determining the relative amounts of dual emission from a multiple fluorescence reader. The fluorescence in cells was quantitatively analyzed by flow cytometry. Mitochondrial depolarization is depicted by an increase in the green/red fluorescence intensity ratio. ROS were monitored with the oxiadtion-senstive fluorescent probe 2′7′-dichlorodihydroflurescenin diacetate (DCF-DA).
In addition, Bcl-2^−/−HeLa cells were more resistant than the parental HeLa cells to Compound 1 in its induction of the mitochondrial membrane potential loss measured by JC1 staining and in the release of mitochondrial ROS (as performed in Example A-12).

[1] = tested on: HEK293T cells transfected with Nur77-LBD; test: Apoptosis in HEK293T cells transfected with Nur77-LBD (confocal microscopy); assay type: cell-based
Excerpt: The ligand-binding domain (LBD) of Nur77, Nur77-LBD, was transfected into HEK293T cells. Transfection of Nur77-LBD enhanced the apoptotic effect of Compound 1, with 36% of the transfected HEK293T cells undergoing apoptosis, while 4.5% of the non-transfected cells were apoptotic, as measured by confocal microscopy.

Nur77−/−MEFs = test: PARP cleavage, Nur77-/- MEFs; assay type: cell-based, mouse; settings: 0.5 μM
Method: The apoptotic effect of Compound 1 was examined in mouse embryonic fibroblast (MEF) and MEF lacking Nur77 (Nur77^−/−MEF). […] Induction of PARP cleavage (as performed in Example A-7) in MEFs by Compound 1 at 0.5 μM was also attenuated in Nur77^−/−MEFs.

Nur77 [2] = biological target: T1, Nur77 (Homo sapiens, UniProt P22736); test: Nur77 expression and mitochondrial targeting with BI2030, HeLa; assay type: cell-based; settings: HeLa cells
T1 construct: expressed in transfected cells
T1 sequence (P22736 whole entry): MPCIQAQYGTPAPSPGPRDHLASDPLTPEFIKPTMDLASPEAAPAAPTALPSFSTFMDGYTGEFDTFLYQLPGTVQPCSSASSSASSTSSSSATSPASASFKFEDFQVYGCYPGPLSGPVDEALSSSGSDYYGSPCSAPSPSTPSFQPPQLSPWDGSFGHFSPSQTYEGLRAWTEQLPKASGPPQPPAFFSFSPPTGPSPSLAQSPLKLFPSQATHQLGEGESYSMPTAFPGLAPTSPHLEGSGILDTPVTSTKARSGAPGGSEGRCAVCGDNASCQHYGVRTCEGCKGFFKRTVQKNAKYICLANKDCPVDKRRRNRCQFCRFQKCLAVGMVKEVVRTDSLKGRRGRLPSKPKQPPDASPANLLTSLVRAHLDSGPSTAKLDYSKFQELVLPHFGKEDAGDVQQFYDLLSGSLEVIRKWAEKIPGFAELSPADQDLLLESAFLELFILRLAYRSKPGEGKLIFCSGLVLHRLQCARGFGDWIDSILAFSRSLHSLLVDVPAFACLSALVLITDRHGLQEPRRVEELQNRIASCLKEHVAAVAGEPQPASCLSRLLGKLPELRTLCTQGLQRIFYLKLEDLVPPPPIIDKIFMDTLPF
Excerpt: To further characterize the effect of Compound 1 on promoting Nur77 mitochondrial targeting, we investigated the effect of Compound 1 in combination with BI2030 on Nur77 mitochondrial targeting and apoptosis induction. […] When Compound 1 and B12030 were used together, most of the BI2030-induced Nur77 protein was found in the heavy membrane fraction, and formed punctate structure in the cytoplasm, as visualized by confocal microscopy.

Nur77 [3] = biological target: T1, Nur77; test: Cellular fractionation and immunostaining: mitochondrial targeting of Nur77; assay type: cell-based
Method: (§2) For cellular fractionation, cells were lysed in cold buffer A (10 mM HEPES-KOH (pH 7.9), 1.5 mM MgCl2, 10 mM KCl, 0.5 mM dithiothreitol) with a cocktail of proteinase inhibitors on ice for 10 min as described. Cytoplasmic fraction was collected by centrifuging at 6000 rpm for 30 seconds. Pellets containing nuclei were resuspended in cold high-salt buffer C (20 mM HEPES-KOH (pH 7.9), 25% glycerol, 420 mM NaCl, 1.5 mM MgCl2, 0.2 mM EDTA, 0.5 mM dithiothreitol) with a cocktail of proteinase inhibitors on ice for 30 minutes.

Nur77 [4] = test: as above; assay type: cell-based
Method: as §2

HCT116 cells = test: DAPI staining for apoptosis, HCT116; assay type: cell-based; settings: 0.5 μM, 6 hours, counted in 200 cells
Method: In HCT116 cells, about 80% apoptotic cells were detected when cells were treated with Compound 1 compared to less than 5% when cells were not treated with Compound 1. Apoptotic cells were counted in 200 cells.

SW480 cells [5] = test: DAPI staining for apoptosis, SW480; assay type: cell-based; settings: 0.5 μM, 6 hours, counted in 200 cells
Method: In SW480 cells, about 60% apoptotic cells were detected when cells were treated with Compound 1 compared to less than 5% when cells were not treated with Compound 1. Apoptotic cells were counted in 200 cells.

Bcl-2−/−MEF cells = test: Mitochondrial ROS, Bcl-2-/- MEF; assay type: cell-based, mouse
Method: as §1
In addition, Bcl-2^−/−MEF cells were more resistant than the parental MEF cells to Compound 1 in its induction of the mitochondrial membrane potential loss measured by JC1 staining and in the release of mitochondrial ROS (as performed in Example A-12).

SW480 cells [6] = test: PARP cleavage assay (Western blotting), SW480; assay type: cell-based; settings: 6 hours
Excerpt: Compound 1a had no effect under the same conditions (FIG. 1A). […] Compound 1a, 28a, 47a, 48a, 73a, 39a, 70a, 103a, 89a and 88a had no effect under the same conditions (FIG. 3B-C).

HeLa cells = test: DAPI staining for apoptosis, HeLa; assay type: cell-based
Method: In HeLa cells, about 60% apoptotic cells were detected when cells were treated with Compound 1 compared to less than 5% when cells were not treated with Compound 1. Apoptotic cells were counted in 200 cells.
We next examined whether Nur77 mitochondrial targeting induced by the combination of Compound 1/B12030 was apoptotic. HeLa cells were treated with either Compound 1 or BI2030 alone or in combination and apoptosis was examined by DAPI staining. About 7.2% or 9.1% of cells were apoptotic when treated with 0.5 μM Compound 1 or 1 μM BI2030, respectively, for 2 hours. […] Apoptotic cells were counted in 200 cells.

Nur77−/−HeLa cells = test: Annexin V/PI staining, Nur77 knockout HeLa; assay type: cell-based
Method: Knocking out Nur77 and Bcl-2 from HeLa cells employed the CRISPR/Cas9 system. gRNA targeting sequence of Nur77 (5′-[…]-3′) and Bcl-2 (5′-[…]-3′) was cloned into gRNA cloning vector Px330 (Addgene, 71707) and confirmed by sequencing. To screen for cells lacking Nur77 or Bcl-2, HeLa cells were transfected with control vector and gRNA expression vectors, followed by G418 selection (0.5mg/m1). Single colonies were subjected to Western blotting using anti-Nur77 and anti-Bcl-2 antibody to select knockout cells.
The apoptotic effect of Compound lwas also evaluated in Nur77 genome knockout HeLa cells generated by CRISPR/Cas9 technology (Example A-5).

Which results are given for FC(F)(F)c1ccc([C+](c2c[nH]c3ccccc23)c2c[nH]c3ccccc23)cc1 [Compound 1, Bis(1H-indol-3-yl)(4-(trifluoromethyl)phenyl)methylium methanesulfonate]?
JC1 green to red ratio (Bcl-2−/−HeLa cells): no change; cells undergoing apoptosis [1]: 36%; induction of PARP cleavage relative to MEFs (Nur77−/−MEFs): attenuated; induction of Nur77 expression (Nur77 [2]; Compound 1 0.5 μM, BI2030 1 μM, 2 hours (FIG. 5)): incapable of inducing Nur77 expression; Nur77 mitochondrial accumulation / targeting (Nur77 [2]; heavy membrane fraction, Compound 1 tested together with BI2030): able to induce mitochondrial targeting of BI2030-induced Nur77 protein; transfected GFP-Nur77 in heavy membrane (HM) fraction (Nur77 [3]; cellular fractionation): accumulated in the mitochondria-enriched heavy membrane (HM) fraction; Myc-Nur77 in heavy membrane (HM) fraction (Nur77 [3]; mitochondria fractionation, 1μM): accumulated in the mitochondria-enriched heavy membrane (HM) fraction; transfected GFP-Nur77-LBD colocalization with Hsp60 (Nur77 [4]; confocal microscopy and cellular fractionation): colocalized extensively with the mitochondria-specific Hsp60 protein; Myc-Nur77-LBD colocalization with mitochondria (Nur77 [4]; immunostaining): colocalized extensively with the mitochondria; apoptotic cells (DAPI staining) (HCT116 cells): about 80%; apoptotic cells (DAPI staining) (SW480 cells [5]): about 60%; increase in mito-ROS relative to regular MEF cells (Bcl-2−/−MEF cells): smaller increase; concentration inducing PARP cleavage (dose dependent study) (SW480 cells [6]): submicromolar concentrations; apoptotic cells (DAPI staining), single agent (HeLa cells; 0.5 μM Compound 1 or 1 μM BI2030, 2 hours): About 7.2%; apoptotic cells (DAPI staining) (HeLa cells; 0.5 μM, 6 hours, counted in 200 cells): about 60%; apoptotic cells (DAPI staining), co-treated with Compound 1 and BI2030 (HeLa cells; co-treatment with BI2030, 2 hours): about 35.5%; apoptotic effect (Annexin V/PI staining) (Nur77−/−HeLa cells): 3.25%
